Experiment [1] deals with T1, Pepsin A (Sus scrofa, UniProt P00791). Nature of the experiment: Tested for the inhibitory activity against pepsin.
The target of experiment [2] is T2, Human immunodeficiency virus type 1 protease (Human immunodeficiency virus 1, UniProt Q72874). Nature of the experiment: Tested for the inhibitory activity against HIV protease.
Experiment [3] deals with T2, Human immunodeficiency virus type 1 protease. The experiment can be described thus: Tested for the inhibitory activity against HIV protease (First pure eluting diastereomer).
For experiment [4], the target named is T1, Pepsin A. Nature of the experiment: Tested for the inhibitory activity against pepsin (First pure eluting diastereomer).
The target in experiment [5] is T2, Human immunodeficiency virus type 1 protease. The experiment can be described thus: Tested for the inhibitory activity against HIV protease (Second pure eluting diastereomer ).
Experiment [6] deals with T1, Pepsin A. The experiment can be described thus: Tested for the inhibitory activity against pepsin (Second pure eluting diastereomer ).
Experiment [7] in a line: (§1) Tested for the inhibitory activity against Carboxypeptidase A (mixture of diastereomers).
Experiment [8] can be described thus: as §1. This is another data set of the same source.

T1 sequence (P00791 whole entry): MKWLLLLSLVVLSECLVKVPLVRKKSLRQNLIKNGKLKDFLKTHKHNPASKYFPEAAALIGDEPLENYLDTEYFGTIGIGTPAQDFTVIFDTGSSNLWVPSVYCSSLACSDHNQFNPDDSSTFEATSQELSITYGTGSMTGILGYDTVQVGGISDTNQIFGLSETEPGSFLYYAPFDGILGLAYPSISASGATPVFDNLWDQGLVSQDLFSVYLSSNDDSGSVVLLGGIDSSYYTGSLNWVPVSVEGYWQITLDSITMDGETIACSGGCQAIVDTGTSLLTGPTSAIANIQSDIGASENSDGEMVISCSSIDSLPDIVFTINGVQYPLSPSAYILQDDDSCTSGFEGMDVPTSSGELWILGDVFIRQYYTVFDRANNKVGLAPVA

As to `COC(=O)[C@H](Cc1ccccc1)NC(=O)CCc1ccccc1`, the IC50 in experiment [1] and in experiment [2] was greater than 3000 µM in each case.
As to `N[S+]([O-])(CCc1ccccc1)=NCC(=O)OCc1ccccc1` (configuration not stated), the 50% inhibitory concentration (IC50) (commonly the midpoint of a concentration-inhibition curve) in experiment [1] is 700 µM; in experiment [2] it was greater than 5000 µM.
Consider `COC(=O)[C@H](Cc1ccccc1)N=[S+](N)([O-])CCc1ccccc1` (some centres not stated), for which the IC50 is 1000 µM in experiment [3], 700 µM in experiment [4], greater than 5000 µM in experiment [5] and 700 µM in experiment [6].
`O=C(CCc1ccccc1)NCC(=O)OCc1ccccc1`: the IC50 in experiment [1] and in experiment [2] was greater than 3000 µM in each case.
Take `O=C(CCc1ccccc1)N[C@@H](Cc1ccccc1)C(=O)O`: in experiment [7], the Km was determined as 2.1.
Consider `N[S+]([O-])(CCc1ccccc1)=N[C@@H](Cc1ccccc1)C(=O)O` (some centres not stated), for which the IC50 in experiment [8] is 20 µM.

Values taken from ChEMBL document CHEMBL1132391, “The sulfonimidamide as a novel transition state analog for aspartic acid and metallo proteases” (Bioorg Med Chem Lett, 1999).
